# Patent US10974036B2, “Implantable device for long-term delivery of drugs” (Delpor, Inc., priority 2009, dated 2021)
# Several values for one entry are separate records, joined by “and”; a condition that tells them apart may be missing. Equal values may be shown once. Read-outs that look alike come from different tables or passages of the source.
# What was measured:
# [1] = in vivo; conditions: human, plasma, iv
# [2] = cited from earlier work
# [3] = cited from earlier work; remark: listed apart in the source
# [4] = PBS, 37° C.
# Experimental: In yet another study, devices were prepared as described herein an tested in vitro and in vivo.
# Two groups of devices (n=6) were prepared. The main body of each device consisted of a cylindrical titanium tube, definining an internal reservoir. The tubes were 35 mm in length, with an outer diameter (OD) of 4.3 mm and an inner diameter (ID) of about 3 mm (Peridot Manufacturing, Pleasanton, Calif.). Both ends of each tube were tapered (lathed) so as to accept a press cap which served to retain a porous partition, as illustrated in FIGS. 4-5. The first group of devices was fitted on one end with a titanium sintered frit having a diameter 3.5 mm, a depth 0.5 mm, and a 5 micron nominal particle retention size (Applied Porous Materials, Farmington, Conn.). The frit was secured in each tube by placing the tube horizontally in a holder, and then positioning over the open end, in sequence, the frit, an o-ring and the press cap.
# A 2.5 mm stainless steel ball was placed in the reservoir to provide mixing. A second frit was sealed to the remaining open end of the reservoir using the same procedure as described above for the other end. […]
# Both groups of devices were equally split, each subgroup of 3 devices destined for either in vitro or in vivo testing. In vitro release rate was determined by submerging the devices in 1 mL PBS held in screw cap cryo-vials. […]
# [5] = 100 mg risperidone, PBS pH 7.4, 37° C.
# Experimental: Two groups of drug delivery devices were assembled as follows. Cylindrical titanium tubes, 4 mm in diameter and 35 mm in length, were prepared. […] The reservoirs of the devices were filled with phosphate buffered saline (PBS) at pH 7.4 under reduced pressure. Each of the devices in Group B was fitted with two regenerated cellulose membranes (5000 Daltons molecular weight cut off) at each end of the cylindrical tube by sandwiching the membrane between an o-ring and titanium frit (5 micron pores), as illustrated in FIGS. 5A-5B. The devices in Group A were identical, except the cellulose membrane was omitted, as illustrated in FIGS. 4A-4B. The devices were then placed individually in tubes containing approximately 1 mL PBS. The tubes were placed on a rotating rack (1 revolution per hour) at 37° C.
# Buffer was diluted to 20-50 micrograms/mL prior to measurement to insure that the concentration was within the linear range of the UV measurement. Buffer was replaced each day.
# [6] = In vitro release of risperidone, Franz-type diffusion cells with different porous partitions (Example 1); assay type: physicochemical; conditions: after 3-4 day equilibration phase, suspension with PLGA, room temperature
# From the text: As described in Example 1, typical Franz-type diffusion cells were fitted with a porous partition separating a donor chamber from a receptor chamber. The partitions were selected to span a wide range of pore sizes (i.e., molecular weight cut-off or “MWCO”, values or nominal pose diameter) The porous partitions selected for use in this study had molecular weight cut-off values of 100,000 Daltons and 3,000 Daltons. In addition, a porous partition in the form of a […] polyvinyldenefluoride membrane filter (Durapore®) was used.
# Sustained, substantially zero-order release rate was obtained, as best seen in FIG. 7B.
# Typical Franz-type diffusion cells were fitted with porous partitions separating a donor chamber from a receptor chamber. The porous partitions were membranes with pore sizes of 3,000 Daltons molecular weight cut-off, 100,000 Daltons molecular weight cut-off and a 0.45 micron polyvinyldenefluoride membrane filter (Durapore®). […] The cells were maintained at room temperature. […] Buffer was replaced each day.
# [7] = In vivo plasma concentration after subcutaneous implantation of devices in rats (Example 5, FIG. 12B); conditions: subcutaneous device containing risperidone only, first week
# Experimental: For in vivo experiments, rats were anesthetized and devices placed subcutaneously in the dorsum, lateral to the midline, using a trocar. Whole blood samples were obtained by tail vein venous puncture. Plasma was immediately separated from formed elements by centrifugation. […] The lower limit of quantitation was 0.10 ng/mL.
clearance [1] [mL/min],SMILES,Half-life ([2]; in vivo) [h],Target Steady state plasma conc ([2]; in vivo) [ng/mL],CL(L/hr) (iv) [2],Water solubility (mg/mL) acidic pH ([3]; acidic pH) [mg/mL],Water solubility (mg/mL) neutral pH [3] [mg/mL],Bioavailability oral [2] [%],other results
39.6,"O=C1CCc2ccc(OCCCCN3CCN(c4cccc(Cl)c4Cl)CC3)cc2N1 [Aripiprazole, aripiprazole]",3,100,2.37 L/h,–,–,–,–
867,"CN1CC2c3ccccc3Oc3ccc(Cl)cc3C2C1 (stereo not shown) [Asenapine, asenapine]",24,2.1,52 L/h,13,3.0,< 2,solubility ([3]; in 0.1N HCl): 13000 µg/mL; water solubility ([3]; pH 7-7.4): 3000 µg/mL; water solubility ([3]; pH 7.0): 3000 µg/mL; plasma clearance ([2]; in vivo): 52 L/h; Bioavailability sublingual ([2]; sublingual): 30%
667,"O=C(CCCN1CCC(O)(c2ccc(Cl)cc2)CC1)c1ccc(F)cc1 [Haloperidol, haloperidol]",29,2,42 L/h and 22 L/h,4.2,0.025,65,–
–,"Cc1cc2c(s1)Nc1ccccc1N=C2N1CCN(C)CC1 [Olanzapine, olanzapine]",–,30,–,–,–,60,–
–,"Cc1nc2n(c(=O)c1CCN1CCC(c3noc4cc(F)ccc34)CC1)CCCC2O (stereo not shown) [Paliperidone, paliperidone]",24,–,–,–,0.54,–,Water solubility acidic pH relative to neutral pH ([3]; acidic pH): 100 x neutral
–,"Cc1nc2n(c(=O)c1CCN1CCC(c3noc4cc(F)ccc34)CC1)CCCC2 [Risperidone, risperidone]",–,20,–,–,–,–,"in vitro release rate ([4]; devices with PLGA (15 mg 50:50 and 50 mg 85:15), maintained for 30 days): above 0.4 mg/day; in vitro release rate ([4]; devices without PLGA, throughout 30 days): less than 0.05 mg/day; average release rate ([5]; devices with 5 mg 50:50 PLGA and 15 mg 85:15 PLGA (Group B)): 1 to 1.2 mg/day; release rate ([5]; devices without PLGA (Group A)): less than 0.05 mg/day; release rate of risperidone ([6]; 0.45 polyvinyldenefluoride membrane filter (Durapore)): 70 µg/day; release rate of risperidone ([6]; porous partition 3,000 Dalton molecular weight cut-off): 100 µg/day; release rate of risperidone ([6]; porous partition 100,000 Dalton molecular weight cut-off): 200 µg/day; release rate (5 mg 85:15 PLGA in suspension (FIG. 9)): 0.25 mg/day; release rate (10 mg 85:15 PLGA in suspension (FIG. 9)): 0.43 mg/day; release rate (15 mg 85:15 PLGA in suspension (FIG. 9)): 0.64 mg/day; plasma levels of risperidone (plus 9-hydroxyrisperidone) [7]: barely detectable"
